Holding throughout (type): biochemical
The target in experiment [1] is human HRI (Carna Bioscience # 05-154) (Homo sapiens, UniProt Q9BQI3). The experiment in a line: LanthaScreen TR-FRET kinase assay, GFP-eIF2alpha. A general note: TR-FRET usually uses a lanthanide donor and a delayed reading to cut background.
Experiment [2] concerns the target human PKR (Carna Bioscience # 05-156) (Homo sapiens, UniProt P19525). The experiment in a line: LanthaScreen TR-FRET kinase assay, GFP-eIF2alpha.
The target in experiment [3] is human GCN2 (full length, purified; Carna Bioscience # 05-153) (Homo sapiens, UniProt Q9P2K8). The experiment is described as follows: LanthaScreen TR-FRET kinase assay, GFP-eIF2alpha.
Sequence of human GCN2 (full length, purified; Carna Bioscience # 05-153) (Q9P2K8 whole entry): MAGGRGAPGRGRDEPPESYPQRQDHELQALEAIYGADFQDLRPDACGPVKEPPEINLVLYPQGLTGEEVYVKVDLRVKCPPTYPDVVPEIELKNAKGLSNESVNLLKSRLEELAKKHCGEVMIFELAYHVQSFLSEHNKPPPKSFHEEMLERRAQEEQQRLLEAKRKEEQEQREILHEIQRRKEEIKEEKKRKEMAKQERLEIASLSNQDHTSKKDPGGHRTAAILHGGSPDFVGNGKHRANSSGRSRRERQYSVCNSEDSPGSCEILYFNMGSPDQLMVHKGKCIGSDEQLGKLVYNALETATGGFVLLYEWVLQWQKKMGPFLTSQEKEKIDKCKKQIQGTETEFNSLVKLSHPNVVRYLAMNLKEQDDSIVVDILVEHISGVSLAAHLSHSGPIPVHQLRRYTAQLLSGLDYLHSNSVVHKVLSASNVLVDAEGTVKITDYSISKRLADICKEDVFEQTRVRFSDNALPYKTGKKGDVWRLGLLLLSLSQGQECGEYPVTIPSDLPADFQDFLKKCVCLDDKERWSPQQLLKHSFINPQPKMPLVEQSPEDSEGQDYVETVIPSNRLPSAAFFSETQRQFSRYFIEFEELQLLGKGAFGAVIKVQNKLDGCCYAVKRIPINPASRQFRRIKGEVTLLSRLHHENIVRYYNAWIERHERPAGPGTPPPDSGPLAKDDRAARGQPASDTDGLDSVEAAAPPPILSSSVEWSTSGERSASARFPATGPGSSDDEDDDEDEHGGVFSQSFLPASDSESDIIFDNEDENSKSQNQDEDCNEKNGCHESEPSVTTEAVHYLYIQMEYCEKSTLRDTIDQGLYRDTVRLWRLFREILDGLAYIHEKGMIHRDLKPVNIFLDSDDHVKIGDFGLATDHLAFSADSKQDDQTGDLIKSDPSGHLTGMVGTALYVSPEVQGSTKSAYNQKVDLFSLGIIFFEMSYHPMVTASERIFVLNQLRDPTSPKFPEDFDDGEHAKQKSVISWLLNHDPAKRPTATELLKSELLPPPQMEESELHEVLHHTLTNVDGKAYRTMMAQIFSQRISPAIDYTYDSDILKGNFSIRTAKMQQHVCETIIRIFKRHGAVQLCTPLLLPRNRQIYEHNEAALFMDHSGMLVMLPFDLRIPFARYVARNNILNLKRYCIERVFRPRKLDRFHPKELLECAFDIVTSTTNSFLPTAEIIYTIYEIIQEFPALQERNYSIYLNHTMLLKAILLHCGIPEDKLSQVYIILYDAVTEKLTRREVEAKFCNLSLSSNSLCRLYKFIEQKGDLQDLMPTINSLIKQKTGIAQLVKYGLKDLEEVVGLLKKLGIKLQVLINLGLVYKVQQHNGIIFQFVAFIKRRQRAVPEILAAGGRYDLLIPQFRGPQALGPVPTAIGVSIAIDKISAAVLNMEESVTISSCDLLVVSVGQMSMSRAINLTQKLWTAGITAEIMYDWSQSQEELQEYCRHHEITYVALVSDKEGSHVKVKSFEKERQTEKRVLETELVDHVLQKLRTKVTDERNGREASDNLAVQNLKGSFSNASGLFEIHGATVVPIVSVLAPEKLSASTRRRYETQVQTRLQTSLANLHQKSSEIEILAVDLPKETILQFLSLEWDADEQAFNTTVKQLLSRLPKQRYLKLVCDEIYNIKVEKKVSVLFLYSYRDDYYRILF
Experiment [4] deals with full-length human GCN2 (N-terminal twin StrepII tag) (Homo sapiens, UniProt Q9P2K8). The experiment is described as follows: in vitro kinase assay, immunoblot of p-Ser51 eIF2alpha. As to conditions: 100 uM ATP, 2 uM full-length eIF2alpha, 30 °C, 20 min, no tRNA. On the technique in general: Immunoblotting shows a protein as a band on a membrane.
Sequence of full-length human GCN2 (N-terminal twin StrepII tag) (Q9P2K8 whole entry): as above

This is an account of results in doi:10.1101/2025.06.29.662197v2 (biorxiv, 2026).

The IC50 is the concentration that gives 50% inhibition.

Sequence of human PKR (Carna Bioscience # 05-156) (P19525 2-551): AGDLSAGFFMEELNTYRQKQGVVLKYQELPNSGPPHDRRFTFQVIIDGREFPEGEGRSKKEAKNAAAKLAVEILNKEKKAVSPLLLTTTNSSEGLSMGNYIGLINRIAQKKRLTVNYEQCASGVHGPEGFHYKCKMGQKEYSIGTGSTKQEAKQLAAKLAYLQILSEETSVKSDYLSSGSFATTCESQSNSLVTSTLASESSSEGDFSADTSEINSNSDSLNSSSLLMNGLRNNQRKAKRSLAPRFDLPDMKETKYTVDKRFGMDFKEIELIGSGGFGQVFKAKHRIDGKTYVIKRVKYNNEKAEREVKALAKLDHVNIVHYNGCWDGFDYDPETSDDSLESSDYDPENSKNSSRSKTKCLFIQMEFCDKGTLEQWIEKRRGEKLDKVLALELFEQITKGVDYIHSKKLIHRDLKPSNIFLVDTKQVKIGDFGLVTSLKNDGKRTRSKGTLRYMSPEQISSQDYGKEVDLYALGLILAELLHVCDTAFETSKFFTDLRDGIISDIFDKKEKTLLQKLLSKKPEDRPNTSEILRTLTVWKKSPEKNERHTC
Sequence of human HRI (Carna Bioscience # 05-154) (Q9BQI3 whole entry): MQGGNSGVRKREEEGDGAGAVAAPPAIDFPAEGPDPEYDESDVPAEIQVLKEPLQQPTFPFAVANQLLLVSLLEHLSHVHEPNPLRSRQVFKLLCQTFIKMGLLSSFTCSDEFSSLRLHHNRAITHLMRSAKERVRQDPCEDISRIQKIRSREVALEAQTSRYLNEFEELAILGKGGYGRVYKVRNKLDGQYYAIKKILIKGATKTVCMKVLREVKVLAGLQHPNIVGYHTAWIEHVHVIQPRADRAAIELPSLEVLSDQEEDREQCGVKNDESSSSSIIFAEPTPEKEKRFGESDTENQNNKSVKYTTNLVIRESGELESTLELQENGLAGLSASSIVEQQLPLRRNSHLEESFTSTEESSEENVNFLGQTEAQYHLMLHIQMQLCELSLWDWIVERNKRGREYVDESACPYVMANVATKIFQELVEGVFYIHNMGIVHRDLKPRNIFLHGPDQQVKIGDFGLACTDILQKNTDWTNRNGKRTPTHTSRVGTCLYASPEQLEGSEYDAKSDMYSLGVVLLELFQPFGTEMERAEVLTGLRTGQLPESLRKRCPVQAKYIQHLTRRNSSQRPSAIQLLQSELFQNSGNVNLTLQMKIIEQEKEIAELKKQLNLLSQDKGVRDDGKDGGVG

In the case of `COc1ncc(Cl)cc1S(=O)(=O)Nc1ccc(F)c(C#Cc2cnc(N)nc2)c1F` [GCN2iB], the IC50 in experiment [1] worked out at 0.00276 µM; in experiment [2], 3.26 µM; in experiment [3] it was 0.00155 µM.

For `Cc1nn(-c2ccccc2)c2sc(C(=O)Nc3ccc(S(=O)(=O)NCc4ccco4)cc3)cc12` [compound 18, N-(4-{[(furan-2-yl)methyl]sulfamoyl}phenyl)-3-methyl-1-phenyl-1H-thieno[2,3-c]pyrazole-5-carboxamide], the values for the IC50 in experiment [2] and in experiment [3] were 4.5 µM and greater than 3 µM, respectively.

Take `Cc1nc(N)sc1-c1csc(Nc2ncccn2)n1` [compound 20, 4’-methyl-N∼2∼-2-pyrimidinyl-4,5’-bi-1,3-thiazole-2,2’-diamine]: in experiment [4], the fold activation is reported as ~ 40 fold. The IC50 in experiment [2] was 3.75 µM; in experiment [3], greater than 3 µM.

As for `CS(=O)(=O)c1ncc(-c2ccc(Br)cc2)cn1` [compound 21, 5-(4-bromophenyl)-2-(methylsulfonyl)pyrimidine], the IC50 in experiment [3] was greater than 3 µM.
